Results on one compound are retold here after US5595969A, “Variants of human corticosteroid binding globulin” (Allelix Biopharmaceutical Inc., priority 1995, dated 1997).

Where a chain is given by its changes, count along the chain named.

Test [1] addresses T1, human corticosteroid binding globulin (CBG), native (Homo sapiens, UniProt P08185).
T1 sequence (P08185 23-405): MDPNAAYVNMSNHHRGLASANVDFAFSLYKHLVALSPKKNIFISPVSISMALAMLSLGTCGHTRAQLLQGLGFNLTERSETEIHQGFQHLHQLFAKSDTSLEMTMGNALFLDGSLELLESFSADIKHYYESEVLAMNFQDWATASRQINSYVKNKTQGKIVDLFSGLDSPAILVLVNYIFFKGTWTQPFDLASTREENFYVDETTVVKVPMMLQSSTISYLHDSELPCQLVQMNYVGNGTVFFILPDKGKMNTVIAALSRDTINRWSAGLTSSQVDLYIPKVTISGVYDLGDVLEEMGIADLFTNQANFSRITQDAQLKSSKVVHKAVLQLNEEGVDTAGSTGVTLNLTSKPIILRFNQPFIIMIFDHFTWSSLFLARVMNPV
The settings on record: 4° C., physiological pH; read-out: binding affinity of the natural cortisol ligand for CBG; cited from earlier work.

Test [2] addresses T2, human corticosteroid binding globulin (CBG) variant Thr240 to Ala (glycosylation site 238 disrupted) (Homo sapiens, UniProt P08185, T262A).
T2 construct: in order to isolate a full-length CBG cDNA; made in house; host or cells: CHO cells (CHO pro), measured in culture medium
T2 sequence (P08185 23-405 T262A): T1 sequence (P08185 23-405) with T240A
Nature of the test: Steroid binding capacity by saturation analysis with [3H]-cortisol, dextran-coated charcoal. The settings on record: CHO culture media. As for the experimental part:
(§1) The steroid binding capacity of the CBG variants in the culture media was measured by saturation analysis using as a labelled ligand [^3 H]-cortisol (55.8 Ci/mmol) obtained from DuPont, and dextran-coated charcoal as a separation agent as described by Hammond et al. in Clin. Chim. Acta, 1983, 132:101.
(§2) Initially, samples of culture media were added to tubes of PBS containing [^3 H]-cortisol. The mixture in the tubes was vortex mixed and incubated at room temperature for 1 h followed by a further incubation in an ice-water for 15 min. Dextran-coated charcoal (DCC) suspension at 0° C. (1.25 g Norit "A"(Amend Drug and Chemical Co.) and 0.125 g Dextran T-70 (AB Pharmacia) in 0.01 mol/l phosphate-buffered saline containing 0.1% gelatin, pH7) was added to the tubes to bind excess labelled cortisol. The tubes were incubated for […] 0° C. After centrifugation at 3000 X g for 5 min at 4° C. to sediment the DCC, the supernatants were decanted into scintillation counting vials containing 4 ml Aqueous Counting Scintillant (Amersham), which were capped, shaken and counted for 10 min or until 10,000 cpm had accumulated. The binding capacity of the CBG variants was calculated in nmol/L after correction for dilution and the dissociation of bound complexes during the DCC treatment (12% for CBG).

Test [3] addresses T3, human corticosteroid binding globulin (CBG) variant Asn238 to Gln (glycosylation site 238 disrupted) (Homo sapiens, UniProt P08185, N260Q).
T3 construct: made in house; host or cells: CHO cells (CHO pro), measured in culture medium
T3 sequence (P08185 23-405 N260Q): T1 sequence (P08185 23-405) with N238Q
The description is as above. The settings on record: CHO culture media. As for the experimental part:
as §1, §2

Test [4] deals with T4, human corticosteroid binding globulin (CBG) variant glycosylated at positions 74 and 238 (Homo sapiens, UniProt P08185, N176Q/N31Q/N330Q/N369Q).
T4 construct: in order to isolate a full-length CBG cDNA; made in house; host or cells: CHO cells (CHO pro), measured in culture medium
T4 sequence (P08185 23-405 N31Q/N176Q/N330Q/N369Q): T1 sequence (P08185 23-405) with N9Q, N154Q, N308Q, N347Q
Nature of the test: Affinity for cortisol by Scatchard analysis, [3H]-cortisol with increasing unlabelled cortisol. The settings on record: concentrated CHO culture media. As for the experimental part:
as §1, §2
(§3) The affinity of the CBG variants for cortisol was measured using the Scatchard analysis.

The target in test [5] is T5, human corticosteroid binding globulin (CBG) variant glycosylated solely at position 238 (sites 9, 74, 154, 308, 347 disrupted, Asn to Gln) (Homo sapiens, UniProt P08185, N176Q/N31Q/N330Q/N369Q/N96Q).
T5 construct: made in house; host or cells: CHO cells (CHO pro), measured in culture medium
T5 sequence (P08185 23-405 N31Q/N96Q/N176Q/N330Q/N369Q): T1 sequence (P08185 23-405) with N9Q, N74Q, N154Q, N308Q, N347Q
Described as above. The settings on record: concentrated CHO culture media, read-out: K8 (affinity for cortisol) (converted). As for the experimental part: as §1, §2, §3

The target of test [6] is T6, human corticosteroid binding globulin (CBG) variant glycosylated solely at position 74 (Homo sapiens, UniProt P08185, N176Q/N260Q/N31Q/N330Q/N369Q).
T6 construct: made in house; host or cells: CHO cells (CHO pro), measured in culture medium
T6 sequence (P08185 23-405 N31Q/N176Q/N260Q/N330Q/N369Q): T1 sequence (P08185 23-405) with N9Q, N154Q, N238Q, N308Q, N347Q
In words: Steroid binding of CBG variant with [3H]-cortisol. The settings on record: CHO culture media. As for the experimental part:
Chim. Acta, 1983, 132:101. Initially, samples of culture media were added to tubes of PBS containing [^3 H]-cortisol. The mixture in the tubes was vortex mixed and incubated at room temperature for 1 h followed by a further incubation in an ice-water for 15 min. Dextran-coated charcoal (DCC) suspension at 0° C. […] The tubes were incubated for […] 0° C. […] The binding capacity of the CBG variants was calculated in nmol/L after correction for dilution and the dissociation of bound complexes during the DCC treatment (12% for CBG). The affinity of the CBG variants for cortisol was measured using the Scatchard analysis. Prior to conducting the affinity measurement, the culture media was concentrated using *Centricon microconcentrators (Amicon).

Consider `C[C@]12CCC(=O)C=C1CC[C@@H]1[C@@H]2[C@@H](O)C[C@@]2(C)[C@H]1CC[C@]2(O)C(=O)CO` [cortisol], for which the Kd in test [1] is approximately 0.7 nM; in test [5], 9.09 nM. Besides, the steroid-binding activity result in test [2] is “complete loss of steroid-binding activity”; in test [3], “complete loss of steroid-binding activity”; in test [6] it was “no steroid-binding activity”. Besides, in test [4], the “K4 (steroid-binding affinity)” value came to 1.9e+08 M⁻¹.
